Active and inactive are the calls of the source.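 The calls were made as follows: active = compounds giving half or more protection of infected cells from virus-caused growth loss, again on retest; inactive = the rest.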
System: CEM cells HIV-1 protection, formazan growth assay
Assay: NCI AIDS Antiviral Assay
Details: for IC50: measured here: growth of uninfected CEM cells
How it was run: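 Human CEM cells, uninfected and HIV-1-infected, received five drug concentrations, and growth was read by soluble formazan assay. Compounds giving at least 50% protection were retested; reproducible 100% protection defined confirmed active.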

SMILES	EC50 [µM]	IC50 [µM]	outcome
O=c1[nH]nc(CNc2ccc(Cl)cc2Cl)c2ccccc12	55	58.9	
O=C(NCCCCCCNC(=O)n1cc(F)c(=O)[nH]c1=O)NCCCOCCOCCCNC(=O)C(O)C(O)C(O)C(O)CO (stereo unspecified)			inactive
CC1=CC=CC(C)(C)CC1(O[Si](C)(C)C)C(F)(F)F (stereo unspecified)	> 200	148	
Cc1ccc(-c2cc(=S)n(-c3ccccc3)c3nc(=S)n(-c4ccccc4)c(N)c23)cc1	> 200	138	
COc1ccc2c(c1)CCCN1Cc3cc(OC)c(OC)cc3CC21 (stereo unspecified)	> 200	87.1	
CCCC(=O)N[C@@H](Cc1cc(I)c(O)c(I)c1)C(=O)NCCCNCCCCNCCCNC(=O)[C@@H](N)CCCN=C(N)N	> 100	44.7	
Cc1cccc(N=C2NC(=O)C(CC(=O)Nc3ccc(Cl)cc3C)S2)c1 (stereo unspecified)	> 18.6	> 18.6	
O=C(O)CCc1cccc2c1oc1c(CCC(=O)O)cccc12	> 794	191	
CCCCCCCCCCCCCCCCCCSCC(COP(=O)(O)OP(=O)(O)O)OC(=O)CCCCCCCCCCCCCCC (stereo unspecified)	> 0.891	> 0.891	
O=C1NC(=O)C2C(=O)NC(=O)C1C2(c1ccccc1)c1ccc(Cl)cc1 (stereo unspecified)	> 676	468	
CCOC(=O)C1(Sc2ccccc2)CCC2c3[nH]c4ccccc4c3CCN2C1=O (stereo unspecified)	> 12.3	> 12.3	
Nc1cc(Cl)ccc1SSc1ccc(Cl)cc1N	> 200	12	
COc1ccc(CCc2nccn2C)cc1OC	> 200	> 200	
COC(=O)c1c(C#N)[nH]c(-c2ccsc2)c1C(=O)OC	> 200	52.5	
Cc1ccc(-n2c(=S)[nH]c3ccc(Br)cc3c2=O)cc1	> 269	89.1	
NCCSSCc1ccccc1CSSCCN			inactive
c1ccc(N2CC3CSc4ccc5ccccc5c4C3=N2)cc1 (stereo unspecified)	> 200	> 200	
CCC(/C=C/c1ccccc1)=N\N=C(\C=C\c1ccccc1)CC	> 41.7	2.51	
CC1C(=O)N(c2ccccc2)NC12CCCc1ccccc12 (stereo unspecified)	> 200	91.2	

SMILES	EC50 [µM]	IC50 [µM]	outcome
COC(=O)c1cc(C(=O)OC)c(C/C(=N/NC(N)=S)C(=O)Nc2c(C)cccc2C)nc1CC(=Nc1c(C)cccc1C)NNC(N)=S	> 200	> 200	
COc1ccc(CN2CC(=O)N3Cc4ccccc4CN3C(=O)C2)cc1	> 200	166	
CC/C(Cl)=N\OC(=O)Nc1ccc(F)c(Cl)c1			inactive
BrC1(c2ccccc2)C[n+]2c(-c3ccccc3)cc(-c3ccccc3)cc2-c2ccccc21 (stereo unspecified)	> 200	0.741	
Cc1ccc([N+](=O)[O-])cc1NC(=O)/C(CC(=O)c1sc(C(N)=S)nc1C)=N\N			inactive
CCCOC1OC(CS(=O)(=O)O)C(OC(C)=O)C(OC(C)=O)C1OC(C)=O (stereo unspecified)			inactive
CC(=O)O[C@@H]1CC[C@]2(C)C3C[C@H](OC(C)=O)[C@]4(C)C(C(C)CCc5nc6ccccc6o5)CCC4C3[C@H](OC(C)=O)C[C@@H]2C1 (stereo partly specified)	> 50.1	8.51	
CCOC(=O)C(NC(=O)CC)(N1CCN(c2cc3c(cc2F)c(=O)c(C(=O)O)cn3C2CC2)CC1)C(F)(F)F (stereo unspecified)	> 200	126	
O=C1C(=Cc2ccc(O)cc2)N=C(c2ccccc2)N1n1c(-c2ccccc2)nc2ccccc2c1=O	> 200	77.6	
N#CC(NNC(=O)c1ccccc1O)c1ccccc1O (stereo unspecified)	> 91.2	1.58	
CCC(C)C(N)CO (stereo unspecified)	> 200	> 200	
C[n+]1cccc2ccc3cccnc3c21	> 200	7.94	
Cc1ccc(O)c(OC2OC(C(=O)O)C(O)C(O)C2O)c1 (stereo unspecified)	> 832	> 832	
COCC(OC)C(CC=C(C#N)C#N)OC (stereo unspecified)	> 44.7	> 44.7	
CC(=O)NC1C(O[C@H]2CC[C@@]3(C)C(CC[C@]4(C)C3CC=C3C5CC(C)(C)CC[C@]5(C(=O)O)CCC34C)C2(C)C)OC(CO)C(O)C1O (stereo partly specified)	> 200	9.12	
O=C(C(c1ccccc1)c1ccccc1)C(O)(c1ccccc1)c1ccccc1	30.9	34.7	
COc1ccc(N2C(=O)C3c4[nH]c5c(C)cccc5c4C4CCC(C(C)(C)C)CC4C3C2=O)cc1 (stereo unspecified)	> 200	7.94	
C1CCC(N=C(NC2CCCCC2)N2CCOCC2)CC1	> 200	135	
O=[N+]([O-])/C(Cl)=C(\NCCN/C(C(Cl)=C(Cl)Cl)=C(/Cl)[N+](=O)[O-])C(Cl)=C(Cl)Cl	> 200	61.7	

SMILES	EC50 [µM]	IC50 [µM]	outcome
Cc1nn(C)pc1P(C)(=S)n1nc(N(C)C)np1 (stereo unspecified)	> 776	> 776	
O=C(O)CNS(=O)(=O)c1ccc(NC(=O)c2cccc([N+](=O)[O-])c2)cc1			inactive
Cc1cccc2c1C(=O)N(CC[P+](c1ccccc1)(c1ccccc1)c1ccccc1)C2=O	> 200	7.94	
C=CCOc1cc2c(c3oc(=O)cc(CCC)c13)[C@@H](O)[C@H](C)[C@@H](C)O2	6.61	13.5	
COC(=O)[C@H]1C(=CBr)[C@@H]1C(=O)OC.[C-]#[O+].[C-]#[O+].[C-]#[O+].[C-]#[O+].[Fe]	> 200	> 200	
Cc1noc2c1C(=O)CCC2	> 1660	148	
C/C=C/C(=O)[C@@H](O)C(C)(C)C			inactive
CO[C@@H]1/C=C\C=C(/C)C(=O)NC2=CC(=O)C(NCCN(C)C)=C(C[C@@H](C)C[C@@H](OC)[C@@H](O)[C@H](C)/C=C(\C)[C@H]1OC(N)=O)C2=O	> 2	0.102	
O=C(NNc1ccccc1)/C(=C/c1ccc2c(c1)OCO2)NC(=O)c1ccccc1	> 12.9	> 12.9	
COC(=O)C(c1[nH]nc2ccccc12)C(C(=O)OC)c1[nH]nc2ccccc12 (stereo unspecified)			inactive
COc1ccc(C(C)=O)cc1CN1CCN(Cc2cc(C(C)=O)ccc2OC)CC1	> 33.1	> 33.1	
CC12CCC(c3no[n+]([O-])c31)C2(C)C (stereo unspecified)	> 200	110	
CC1OC(OC2C(O)COC(OC3C(C)OC(OC4C(OC(=O)[C@]56CCC(C)(C)C[C@@H]5C5=CCC7[C@@]8(C)C[C@H](O)[C@H](OC9OC(CO)C(O)C(O)C9O)[C@@](C)(CO)[C@@H]8CC[C@@]7(C)[C@]5(C)CC6)OCC(O)C4O)C(O)C3OC3OCC(O)C(O)C3O)C2O)C(O)C(O)C1O (stereo partly specified)	> 58.9	19.5	
Cn1cc(NC(=O)Nc2cc(C(=O)Nc3cc(C(=O)Nc4ccc5cc(S(=O)(=O)O)cc(S(=O)(=O)O)c5c4)n(C)c3)n(C)c2)cc1C(=O)Nc1cc(C(=O)Nc2ccc3cc(S(=O)(=O)O)cc(S(=O)(=O)O)c3c2)n(C)c1	33.9	> 100	
COc1ccc(/C=N/NS(=O)(=O)c2ccc(/C=C3\NC(=O)NC3=O)cc2)cc1	> 200	> 200	
O=C(O)c1nn(-c2ccccn2)c(O)c1N=Nc1ccc(/C=C\c2ccc(N=Nc3c(C(=O)O)nn(-c4ccccn4)c3O)cc2S(=O)(=O)O)c(S(=O)(=O)O)c1	> 1.48	> 1.48	
CCOP(=O)(OCC)/C(C#N)=C\c1ccccc1	> 355	> 355	
CC1CN=C(NS(=O)(=O)c2cc(C(=O)Nc3ccccc3)c(Cl)cc2S)NN1 (stereo unspecified)	> 200	19.1	
CCN(CC)c1ccc2c(c1)Nc1cc(=C(C#N)C#N)c3ccccc3c1=N2	> 19.5	> 19.5	
